According to publication PMC11597774, “Investigation of Antimicrobial and Anti-Inflammatory Efficacy of Newly Synthesized Pyrogallol-Coumarin Hybrids: In Vitro and In Silico Studies” (Pharmaceutics, 2024):
In brackets after ≈: the same amount, converted by molar mass.

Tests used:
S. aureus (isolate) = test: Microdilution MIC/MMC with resazurin; format: cell-based, Staphylococcus aureus; details: for MIC: Staphylococcus aureus
Procedure: (§1) The antimicrobial activity of PCH-1 and PCH-2 was tested against 13 microorganisms. The experiment included four standard strains, Staphylococcus aureus ATCC 6538, Bacillus subtilis ATCC 6633, Proteus mirabilis ATCC 12453, and Pseudomonas aeruginosa ATCC 27853; five isolates, Staphylococcus aureus, Escherichia coli, Salmonella enterica, Klebsiella pneumoniae, and Bacillus subtilis; and one probiotic strain Lactobacillus plantarum 299V. Additionally, three fungal strains were tested, including one standard strain, Candida albicans ATCC 10231, and two isolates, Saccharomyces cerevisiae and probiotic strain Saccharomyces boulardii.
(§2) The bacterial suspensions were prepared using the direct colony method. The turbidity of the initial suspension was adjusted using a densitometer (DEN-1, BioSan, Latvia). When adjusted to the turbidity of the 0.5 McFarland standard, the bacterial suspension contains approximately 10^8 colony-forming units (CFU)/mL, and the yeast suspension contains approximately 10^6 CFU/mL. For the experiment, the initial suspension was further diluted at a 1:100 ratio in a sterile 0.85% saline solution.
(§3) The antimicrobial activity was assessed by determining the minimum inhibitory concentrations (MICs) and minimum microbicidal concentrations (MMCs) using the microdilution plate method with resazurin (Alfa Aesar GmbH & Co. (KG, Karlsruhe, Germany)). For this, 96-well plates were prepared by adding 100 μL of Mueller Hinton broth (Torlak, Belgrade, Serbia) for bacterial tests and Sabouraud broth (Torlak, Belgrade, Serbia) for yeast into each well. The tested PCH-1 and PCH-2 were dissolved in 10% dimethyl sulfoxide (DMSO) and then diluted into sterile distilled water. A 100 μL sample from the stock solution of the tested compound was then added to the first row of the plate, followed by twofold serial dilutions using a multichannel pipette. This produced a concentration range from 2.69 to 0.0025 µmol/L. The method is described in detail in the reported paper.
(§4) Each test setup included growth control and sterility control. […] Minimum microbicidal concentrations (MMCs) were determined as described in detail in the reported paper.

E. coli = test: Microdilution MIC/MMC with resazurin; format: cell-based, Escherichia coli; details: for MIC: Escherichia coli
Procedure: as §1, §2, §3, §4

[1] = biological target: T1, Soybean lipoxygenase (Type I-B) (Glycine max, UniProt P08170); test: In vitro LOX inhibition assay; format: biochemical; details: for inhibition at 25 µM / inhibition at 50 µM / inhibition at 100 µM: read-out: Anti-LOX Activity (%); for IC50: sodium linoleate substrate, tris buffer pH 9, read-out: IC50 (µM), in vitro lipoxygenase inhibitory activity
T1 construct: purchased Merck (KGaA, Darmstadt, Germany)
T1 sequence (P08170 1-839): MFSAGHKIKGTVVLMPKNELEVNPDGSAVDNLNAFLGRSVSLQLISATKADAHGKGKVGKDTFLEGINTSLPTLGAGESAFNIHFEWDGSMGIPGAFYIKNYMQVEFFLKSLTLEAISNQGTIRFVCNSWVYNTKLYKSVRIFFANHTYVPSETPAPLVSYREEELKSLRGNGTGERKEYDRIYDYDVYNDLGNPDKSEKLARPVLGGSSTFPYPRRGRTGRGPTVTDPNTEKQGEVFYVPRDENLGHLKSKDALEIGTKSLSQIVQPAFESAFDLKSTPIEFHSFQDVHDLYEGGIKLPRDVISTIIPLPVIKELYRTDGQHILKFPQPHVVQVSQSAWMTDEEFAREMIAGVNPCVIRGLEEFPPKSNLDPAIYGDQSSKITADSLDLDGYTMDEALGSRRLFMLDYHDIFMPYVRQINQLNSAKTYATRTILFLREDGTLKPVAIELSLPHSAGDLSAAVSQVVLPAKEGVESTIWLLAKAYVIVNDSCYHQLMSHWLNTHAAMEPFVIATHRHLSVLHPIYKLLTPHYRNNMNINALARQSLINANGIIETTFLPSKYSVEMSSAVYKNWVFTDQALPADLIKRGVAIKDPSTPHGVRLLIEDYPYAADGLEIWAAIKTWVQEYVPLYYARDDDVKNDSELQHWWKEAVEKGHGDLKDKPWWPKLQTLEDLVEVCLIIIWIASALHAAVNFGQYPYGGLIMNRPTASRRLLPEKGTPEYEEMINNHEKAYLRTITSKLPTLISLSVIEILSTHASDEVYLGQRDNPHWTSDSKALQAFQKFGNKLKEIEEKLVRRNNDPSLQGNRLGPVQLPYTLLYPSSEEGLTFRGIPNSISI
Excerpt: Soybean lipoxygenase (Type I-B) is a very often used enzyme for the investigation of anti-inflammatory properties of compounds [38]. The LOX inhibition assay measures the rate of oxidation of linoleic acid by lipoxygenase, which results in the formation of a colorless product that can be detected spectrophotometrically. This enzyme catalyzes the conversion of linoleic acid into hydroperoxy fatty acids and results in increased absorbance at 234 nm. The tested compounds dissolved in DMSO were incubated at room temperature with sodium linoleate (3 mM in tris buffer pH = 9) and enzyme solution (5 × 10^3 units/mL in saline). The activity for each tested compound was presented as IC50 value ± standard deviation (SD) of three independent measurements.

| SMILES | MMC (S. aureus (isolate)) | MIC (S. aureus (isolate)) | MMC (E. coli) | MIC (E. coli) | inhibition at 25 µM [1] | inhibition at 30 µM [1] | inhibition at 40 µM [1] | inhibition at 50 µM [1] | inhibition at 60 µM ([1]; 60 µM) | inhibition at 100 µM [1] | IC50 [1] | inhibition at 20 µM ([1]; 20 µM) |
| --- | --- | --- | --- | --- | --- | --- | --- | --- | --- | --- | --- | --- |
| C/C(NNC(=O)c1ccc(O)c(O)c1O)=C1\C(=O)Oc2ccccc2C1=O [PCH-1, (E)-N′-(1-(2,4-dioxochroman-3-ylidene)ethyl)-2,3,4-trihydroxybenzohydrazide] | 2.70 mM | 2700 µM (≈ 1000 µg/mL) | 0.34 mM | 340 µM (≈ 126 µg/mL) | 32.8 ± 2.4% | 36.8 ± 2.4% | 51.4 ± 1.8% | 65.1 ± 2% | 84.9 ± 0.1% | 96.1 ± 0.7% | 38.1 µM | – |
| C/C(NNC(=O)c1cc(O)c(O)c(O)c1)=C1\C(=O)Oc2ccccc2C1=O [PCH-2, (E)-N′-(1-(2,4-dioxochroman-3-ylidene)ethyl)-3,4,5-trihydroxybenzohydrazide] | 1.35 mM | 1350 µM (≈ 500 µg/mL) | 0.34 mM | 170 µM (≈ 63 µg/mL) | 38.9 ± 3.1% | 41.9 ± 1.4% | 67 ± 0.9% | 71.7 ± 2.2% | – | 95.2 ± 1% | 34.1 µM | 20.7 ± 2.7% |
